In ChEMBL document CHEMBL1201862, “PubChem BioAssay data set” (2004):
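Five compound concentrations were applied to cells in 96-well plates for 48 hours; endpoints were derived by simple linear interpolation of the resulting dose-response curve. At the GI50, growth is halved.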 The source made the active and inactive calls. Cut-off read from the data, not from the text of the source: active = GI50 up to about 1.1 µM and inactive = higher.

What was measured:
Experiment in all cases: NCI anticancer screen, dose series, 48 h
[1] = test system: 786-0
[2] = test system: COLO 205
[3] = test system: EKVX
[4] = test system: HOP-62
[5] = test system: Hs-578T
[6] = test system: K562
[7] = test system: M14
[8] = test system: NCI-H23
[9] = test system: NCI/ADR-RES
[10] = test system: OVCAR-3
[11] = test system: OVCAR-4
[12] = test system: OVCAR-8
[13] = test system: RPMI-8226
[14] = test system: SF-268
[15] = test system: SF-295
[16] = test system: SK-OV-3
[17] = test system: SR
[18] = test system: T47D
[19] = test system: U-251
[20] = test system: UACC-62

Row | SMILES | GI50 [1] | GI50 [2] | GI50 [3] | GI50 [4] | GI50 [5] | GI50 [6] | GI50 [7] | GI50 [8] | GI50 [9] | GI50 [10] | GI50 [11] | GI50 [12] | GI50 [13] | GI50 [14] | GI50 [15] | GI50 [16] | GI50 [17] | GI50 [18] | GI50 [19] | GI50 [20]
1 | CCOC(=O)C1C/C(C)=C(/C)SCCCS1 (stereo not given) | > 100 µM (inactive) | > 100 µM (inactive) | > 100 µM (inactive) | > 100 µM (inactive) | > 100 µM (inactive) | 46.1 µM (inactive) | > 100 µM (inactive) | 80 µM (inactive) | > 100 µM (inactive) | 98.9 µM (inactive) | > 100 µM (inactive) | > 100 µM (inactive) | 58.6 µM (inactive) | > 100 µM (inactive) | > 100 µM (inactive) | > 100 µM (inactive) | 65.5 µM (inactive) | 60.3 µM (inactive) | > 100 µM (inactive) | > 100 µM (inactive)
2 | O=C(OCC1CCCN2CCCCC12)c1ccncc1 (stereo not given) | > 100 µM (inactive) | > 100 µM (inactive) | > 100 µM (inactive) | > 100 µM (inactive) | > 100 µM (inactive) | > 100 µM (inactive) | > 100 µM (inactive) | > 100 µM (inactive) | > 100 µM (inactive) | > 100 µM (inactive) | > 100 µM (inactive) | > 100 µM (inactive) | > 100 µM (inactive) | > 100 µM (inactive) | > 100 µM (inactive) | > 100 µM (inactive) | > 100 µM (inactive) | > 100 µM (inactive) | > 100 µM (inactive) | > 100 µM (inactive)
3 | Cc1cccc(/N=N/C(=N\NC(=O)c2cc(Cl)ccc2O)c2ccc(N(CCC#N)CCC#N)cc2C)c1 | 38.5 µM (inactive) | 13.6 µM (inactive) | 34.7 µM (inactive) | 28.2 µM (inactive) | 77.6 µM (inactive) | 33.3 µM (inactive) | 45.5 µM (inactive) | 32.7 µM (inactive) | 45.1 µM (inactive) | 18.5 µM (inactive) | 22.1 µM (inactive) | 31.3 µM (inactive) | 14.9 µM (inactive) | 30.1 µM (inactive) | 40.3 µM (inactive) | 35.7 µM (inactive) | 22.8 µM (inactive) | 22.9 µM (inactive) | 36.1 µM (inactive) | 24 µM (inactive)
4 | Nc1ccc2nc(N)n[n+]([O-])c2c1 | > 100 µM (inactive) | > 100 µM (inactive) | > 100 µM (inactive) | > 100 µM (inactive) | > 100 µM (inactive) | > 100 µM (inactive) | > 100 µM (inactive) | > 100 µM (inactive) | > 100 µM (inactive) | > 100 µM (inactive) | > 100 µM (inactive) | > 100 µM (inactive) | > 100 µM (inactive) | > 100 µM (inactive) | 10 µM (inactive) | > 100 µM (inactive) | > 100 µM (inactive) | > 100 µM (inactive) | > 100 µM (inactive) | > 100 µM (inactive)
5 | Clc1ccc2c(c1)N(CCCN1CCCC13CCCCC3)c1ccccc1S2 | 10.8 µM (inactive) | > 39.2 µM (inactive) | 11.9 µM (inactive) | 16.3 µM (inactive) | 13.5 µM (inactive) | 3.95 µM (inactive) | 13.6 µM (inactive) | 16.1 µM (inactive) | 14.7 µM (inactive) | 14.1 µM (inactive) | 15.4 µM (inactive) | 16.5 µM (inactive) | 2.79 µM (inactive) | 18.8 µM (inactive) | 15.6 µM (inactive) | 20.8 µM (inactive) | 4.39 µM (inactive) | 11.9 µM (inactive) | 10.2 µM (inactive) | 16.6 µM (inactive)
6 | O=C1CC(Cl)c2c1csc2Br (stereo not given) | 7.91 µM (inactive) | 15.2 µM (inactive) | 20.3 µM (inactive) | 14.5 µM (inactive) | 21.6 µM (inactive) | 17.6 µM (inactive) | 13.9 µM (inactive) | 15.3 µM (inactive) | 20.9 µM (inactive) | 16.3 µM (inactive) | 25.9 µM (inactive) | 16.3 µM (inactive) | 1.03 µM (active) | 16.8 µM (inactive) | 23.7 µM (inactive) | 18.6 µM (inactive) | 4.56 µM (inactive) | 23.1 µM (inactive) | 16.7 µM (inactive) | 15.3 µM (inactive)
